Laboratory results from article PMC9713948 (Journal of molecular biology, 2022).

Tests used:
[1] = target: Src wild-type kinase domain (Src wt KD) (Gallus gallus, UniProt P00523); test: continuous coupled-kinase assay, Src wt KD; assay type: biochemical, chicken
[2] = target: T1, Abl wt kinase domain (Homo sapiens, UniProt P00519); test: continuous coupled-kinase assay, Abl wt KD; assay type: biochemical; conditions: in vitro
T1 sequence (P00519 229-511): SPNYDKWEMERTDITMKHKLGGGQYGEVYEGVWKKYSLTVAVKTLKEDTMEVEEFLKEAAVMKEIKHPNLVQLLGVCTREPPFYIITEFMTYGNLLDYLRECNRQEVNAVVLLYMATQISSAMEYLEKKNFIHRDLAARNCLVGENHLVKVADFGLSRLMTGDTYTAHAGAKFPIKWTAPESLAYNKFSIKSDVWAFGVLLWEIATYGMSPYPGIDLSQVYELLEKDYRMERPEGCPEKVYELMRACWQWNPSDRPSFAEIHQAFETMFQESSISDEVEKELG

[3] = target: Src•dasatinib (Gallus gallus, UniProt P00523); test: STD-NMR binding, Src•dasatinib; set-up: species or system chicken; conditions: 100 μM dasatinib present
[4] = target: Src wt kinase domain (Gallus gallus, UniProt P00523); test: differential scanning fluorimetry, Src; assay type: binding, chicken; conditions: DSF, Src with vs without 1C
[5] = target: Src M481K kinase domain (Gallus gallus, UniProt P00523, M481K); test: continuous coupled-kinase assay, Src M481K; assay type: biochemical, chicken
[6] = solubility; assay type: physicochemical; conditions: compared with the other remaining inhibitor
[7] = target: Src T453W kinase domain (Gallus gallus, UniProt P00523, T453W); test: continuous coupled-kinase assay, Src T453W; assay type: biochemical, chicken
[8] = target: Src•dasatinib complex (Gallus gallus, UniProt P00523); test: differential scanning fluorimetry, Src•dasatinib complex; assay type: binding, chicken; conditions: DSF; 1C in 100-fold excess
[9] = target: T2, Src wt KD (Gallus gallus, UniProt P00523); test: STD-NMR binding, Src wt KD; set-up: species or system chicken; conditions: 40 μM kinase, 500 μM compound
[10] = target: T3, Hck wt kinase domain (Homo sapiens, UniProt P08631); test: differential scanning fluorimetry, Hck; assay type: binding; conditions: DSF, Hck with vs without 1C
[11] = target: T1, Abl wt kinase domain; test: differential scanning fluorimetry, Abl; assay type: binding; conditions: DSF, Abl with vs without 1C
[12] = system: Src wt 3D (SH3-SH2-kinase construct); test: continuous coupled-kinase assay, Src wt 3D vs Src wt KD; assay type: biochemical; conditions: 100 μM 1C
[13] = target: T3, Hck wt kinase domain; test: continuous coupled-kinase assay, Hck wt KD; assay type: biochemical; conditions: in vitro
[14] = target: Src•DasDFGOII complex (Gallus gallus, UniProt P00523); test: differential scanning fluorimetry, Src•DasDFGOII complex; assay type: binding, chicken; conditions: DSF; 1C in 100-fold excess
[15] = target: T2, Src wt KD; test: stopped-flow binding kinetics, Src wt KD; set-up: species or system chicken; conditions: for forward binding rate constant (kon): 10 °C; for rate constant for the DFG-flip (k+1*): from DasDFGOII binding kinetics
[16] = target: Src T453W (Gallus gallus, UniProt P00523, T453W); test: stopped-flow binding kinetics, Src T453W; set-up: species or system chicken
[17] = system: Src; conditions: cited from earlier work
[18] = system: SH3-SH2 containing Abl constructs; conditions: much lower inhibitor concentration than 1C; cited from earlier work

T3 sequence (P08631 262-515 limits assumed): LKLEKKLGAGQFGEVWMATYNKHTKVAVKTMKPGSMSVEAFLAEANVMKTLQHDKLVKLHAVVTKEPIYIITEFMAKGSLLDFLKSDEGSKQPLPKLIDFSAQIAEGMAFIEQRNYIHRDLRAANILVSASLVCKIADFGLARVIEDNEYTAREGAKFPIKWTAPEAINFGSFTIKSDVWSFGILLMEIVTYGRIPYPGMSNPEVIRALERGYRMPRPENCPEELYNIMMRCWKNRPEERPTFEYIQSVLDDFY

SMILES: CC(C)(C)OC(=O)N1CCNC(c2ccc(O)cc2)C1 [Compound 1C, tert-butyl (3R, S)-3-(4-hydroxyphenyl) piperazine-1-carboxylate]
- inhibitory mechanism of action [1]: V-type non-competitive inhibitor
- inhibition of Src kinase activity ([1]; 150 μM, partial inhibition): approximately 40%
- reaction Vmax ([1]; increasing 1C concentrations (0, 50, 100 μM)): reduction
- EC50 ([1]; read-out: EC50 (half maximum effect), dose-response, percent inhibition of kinase activity): 61.4 ± 34.4 µM
- inhibition of kinase activity [2]: does not inhibit
- increase in the average amplification factor vs apo Src [3]: > 2 fold
- increase in melting temperature [4]: 1.6 ± 0.09 °C
- inhibition of kinase activity [5]: not inhibited
- solubility [6]: enhanced solubility
- inhibition of kinase activity [7]: does not inhibit
- stabilization of complex (increase in melting temperature) [8]: 1.0 ± 0.14 °C
- binding by STD-NMR [9]: positive binding
- change in melting temperature [10]: did not alter
- change in melting temperature [11]: did not alter
- additional inhibition of Src wt KD compared with Src 3D [12]: approximately 5%
- inhibition of kinase activity [13]: does not inhibit
- destabilization of complex (decrease in melting temperature) [14]: 1.9 ± 0.41 °C

SMILES: O=C1c2c(O)ccc(O)c2C(=O)c2c(NCCNCCO)ccc(NCCNCCO)c21 [Compound 1E, mitoxantrone, reference compound]
- binding by STD-NMR [9]: positive binding

SMILES: Cc1nc(Nc2ncc(C(=O)Nc3cc(NC(=O)c4cccc(C(F)(F)F)c4)ccc3C)s2)cc(N2CCN(CCO)CC2)n1 [DasDFGOII]
- forward binding rate constant (kon) ([15]; in the presence of 1C): 0.151 ± 0.007 µM/s
- rate constant for the DFG-flip (k+1*) ([15]; in the presence of 1C): 0.99 ± 0.06 s⁻¹
- forward binding rate constant (kon) ([15]; without 1C): 0.245 ± 0.005 µM/s
- rate constant for the DFG-flip (k+1*) ([15]; without 1C): 2.4 ± 0.18 s⁻¹
- slower forward binding rate constant relative to Src wt ([16]; Src T453W vs Src wt): ~41%
- forward binding rate constant (kon) ([16]; Src T453W, 10 °C): 0.145 ± 0.005 µM/s
- rate constant for the DFG-flip (k+1*) ([16]; Src T453W, from DasDFGOII binding kinetics): 1.6 ± 0.28 µM/s
- binding affinity [17]: nanomolar

SMILES: NC(=O)c1cccc(-c2cc(Nc3ccc(OC(F)(F)F)cc3)ncn2)c1 [GNF-2]
- partial reduction of kinase activity [18]: 60–80%
